Measured values published in article PMC2831638 (Biochemistry, 2010).
Entries after “also recorded” stand apart in the source; their conditions may differ. Ends that are not written are not given here.

Key:
[1] = Peptide solubility, filtration assay with AAA; format: physicochemical; settings: pH 7.4
[2] = test system: Aβ42-induced toxicity in differentiated PC-12 cells; settings: cell-viability screen; cited from earlier work

Substance	Max. solubility [1] [µM]	toxicity of the peptide itself (in words) [2]	also measured
AEDVGSNKGA [Aβ(21–30)]	129 ± 5		
IGLMVGGVVIA [Aβ(32–42)]		slight toxicity	
KGAIIGLMVGGVVIA [Aβ(28–42)]		highly toxic itself; also recorded: higher toxicity than Aβ42 itself	
LMVGGVV [Aβ(34–40)]	169 ± 13		
VVIA [Aβ(39–42)]			inhibition of Aβ42-induced toxicity (in words) [2]: strongest inhibitors
